Experimental data as given in paper PMC5459853, “Cathepsin S inhibition combines control of systemic and peripheral pathomechanisms of autoimmune tissue injury” (Scientific Reports, 2017).

Columns and labels:
[1] = molecular target: Human Cat-S (Homo sapiens, UniProt P25774); test: Enzymatic isoform-selectivity assay, human Cat-S; assay type: biochemical; settings: read-out: apparent IC50, human Cat-S
Method: RO5459072 was provided by F. Hoffmann-La Roche, Ltd., Basel, Switzerland. It is a competitive inhibitor of the active site of Cat-S and its nitrile function allows covalent reversible inhibition of Cat-S. The synthesis of RO5459072 has been described in WO 2010121918 and WO 2013068434. Recombinant cathepsins were produced in-house or were purchased from commercial vendors. Initial enzymatic assays to determine isoform-selectivity in vitro were performed as previously described, [23]. […] For this the Cat-S-dependent hydrolysis of the fluorogenic substrate Z-Phe-Arg-AMC (Sigma Aldrich) was followed at various inhibitor concentrations. The active fraction of Cat-S was detemined as 70% with a HPLC assay measuring modification of Cat-S with the covalent inhibitor LHVS. The buffer (100 mM potassium phosphate, 50 mM NaCl, 5 mM EDTA, 5 mM TCEP, pH 6) was thoroughly degassed prior to perfoming measurements to prevent oxidation of the catalytic cystein residue by dissolved oxygen. For the Ki-determination the substrate was employed at 10 µM = KM. All kinetic measurements were performad on a SFM-3000 stopped-flow instrument (Bio-Logic Science Instruments) and data were analyzed with GraphPad Prism v5.

[2] = Plasma exposure on food admix (HPLC-MS/MS) and spleen p10; assay type: in vivo, MRL-(Fas)lpr mice
Method: Four-week-old female MRL-(Fas)lpr mice were purchased from Harlan Winkelmann (Borchen, Germany) and kept under pathogen-free conditions in a 12 hour light and dark cycle with free access to food and water. All animal experiments were performed in accordance with the European protection laws of animal welfare, and with approval by the local government authorities Regierung von Oberbayern (reference number: 55.2.1-54-2532.2-11-12). At 11 or 15 weeks of age only mice with proteinuria (Albustix, Bayer AG, Leverkusen, Germany) were randomized into five different groups (n = 10) receiving different medicated diets: Three groups were fed with chow mixed with either 3, 10 or 30 mg/kg/day RO5459072, another group’s chow was mixed with 100 mg/kg/day mycophenolate mofetil (MMF), and one group received a standard diet (vehicle). The dose of MMF was chosen according to several studies reporting strong efficacy on SLE and lupus nephritis in MRL-(Fas)lpr mice[24]–[26]. […] At the age of 19 weeks all mice were sacrificed by cervical dislocation. Blood and urine samples were collected at different time points as indicated. In other experiments 7 week old female MRL-(Fas)lpr mice were randomized into three groups (n = 3) to receive a single intravenous injection of 10 µg sterile recombinant Cat-S and one group receiving vehicle (100 µl sterile PBS). One of the Cat-S groups was pretreated with 30 mg/kg/day RO5459072 starting one week prior to Cat-S injection; another group was pretreated with a total of four daily intra-peritoneal injections of the PAR-2 inhibitor GB83 (10 mg/kg).
Plasma samples were collected from mice during the feeding cycle on weeks 2, 4, 6 and 8 on a variable schedule of individuals after initiation of feeding with the drug-food admix on week 1. The levels in food were calculated to achieve doses of 3, 10 and 30 mg/kg/day. EDTA-treated plasma samples (29 per dose level) were frozen and subsequently analysed for the parent drug by HPLC-MS/MS. A column-trapping method (Phenonenex Luna C18 and Thermo Hypersil Gold C8 HPLC columns eluted with formic acid/water/acetonitrile mixtures on a Waters Acquity HPLC system) was used to separate the drug which was quantified using a Sciex API4000 MS/MS. The analytical range was 10–10,000 ng/ml and a stable label internal standard was used. […] All experiments were performed according to German animal protection laws and had been approved by the local government authorities.

[3] = Acute in vivo pharmacodynamics: splenic p10 induction after oral gavage; parameters: species or system BALB/c mice; settings: BALB/c, mouse, plasma; oral gavage 1 mg/kg; read-out: plasma concentration of the inhibitor at maximal p10 induction
Method: For the determination of in-vivo enzyme inhibition activity of Cat-S by RO5459072 BALB/c mice were used. After oral dosing of 0.1 mg/kg to 100 mg/kg of RO5459072, mice were sacrificed after 7 hours and spleens harvested. Invariant chain was quantified by western blot from mouse splenocyte supernatants loaded onto 10% SDS-PAGE gel. Upon transfer onto a nitrocellulose membrane rabbit anti-CD74 (BD Biosciences) was used.
Supplementary figure 1. Biochemical and pharmacological profile of R05459072. (A) Upregulation of invariant chain p10 levels in human B-cells was estimated by p10 ELISA, upon treatment with increasing concentration of RO5459072. […]
upregulation in B-cells derived from 6 healthy volunteers. (B) Determination of KM for the fluorogenic substrate Z-Phe-Arg-AMC. (C) Progress curves of hydrolysis of 10 µM Z-Phe-Arg-AMC by 10 nM Cat-S in the presence of no (black dots) or increasing concentration of RO5459072. A linear equation was fitted to the data to determine the slope (solid lines). […]
the residuals of the fit to the data. (D) Secondary plot of the slopes from panel B as function of RO5459072 concentration (dots with color coding from panel B). The Morrison equation was […]
active Cat-S converged to [E]0 = 6.9 nM). The dashed red lines indicate the 95 % confidence intervals of the fit to the data. (E) Pharmacodynamics of R05459072 was determined in C57Bl6 mice with increasing amounts of compound as single dose. Plasma levels of compounds were correlated to the upregulation of p10 in spleenocytes.
Supplementary figure 2. FACS gating strategies used for the different splenic immune cell populations. (A-C) Activated dendritic cells CD11c+CD11b+MHC-II, (D-F) activated macrophages CD11c+F480+MHC-II and (G-H) plasma cells CD138+κ-light chain+
Supplementary figure 3. Plasma IgG isotypes in MRL-(Fas)lpr mice. Plasma levels of IgG1 (A), IgG2a (B), and IgG2b (C) were determined by ELISA at different time points from the initiation (week 11) to the end of treatment (week 19). Data are expressed as means ± SEM (n=8 to 10 in […]

[4] = extensive screening studies in mice, rats, monkeys and humans preceding clinical trial NCT01701985; cited from earlier work

Human Cat-S, sequence (P25774 115-331): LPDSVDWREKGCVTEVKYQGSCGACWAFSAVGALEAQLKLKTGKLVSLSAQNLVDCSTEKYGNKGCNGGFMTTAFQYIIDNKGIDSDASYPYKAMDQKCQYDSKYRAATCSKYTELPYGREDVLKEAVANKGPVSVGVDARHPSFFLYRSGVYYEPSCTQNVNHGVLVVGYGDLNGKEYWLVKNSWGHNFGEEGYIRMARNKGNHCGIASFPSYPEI

## Cn1cc(-c2ccc(S(=O)(=O)[C@@H]3C[C@@H](C(=O)NC4(C#N)CC4)N(C(=O)C4(C(F)(F)F)CC4)C3)c(C(F)(F)F)c2)cn1 [RO5459072]
[1]
  IC50: 0.1 nM
[2]; 3 mg/kg/day food admix
  mean plasma concentration (SD): 172 ± 58.4 ng/mL
[2]; 10 mg/kg/day food admix
  mean plasma concentration (SD): 648 ± 142 ng/mL
[2]; 30 mg/kg/day food admix
  mean plasma concentration (SD): 2660 ± 575 ng/mL
[2]; food admix, MRL-(Fas)lpr mice
  p10 fragment accumulation in the spleen: robust p10 fragment accumulation
[2]; mouse, plasma, oral, food admix 262 mg/kg of food, exposure dose 30 mg/kg, over 8 weeks, female MRL-(Fas)lpr mice, read-out: stable plasma levels
  concentration at 8 weeks: 400 to 600 ng/mL
[3]
  concentration at 7 h: 17 nM
[4]
  drug safety signals: did not show any signals regarding drug safety
